Data set [1] has as its system Streptococcus pneumoniae 1/1, Trimethoprim- and Penicillin-resistant, Serotype 6; clinical isolate. Briefly: MIC against Streptococcus pneumoniae 1/1. The format is cell-based. The note with it: read-out: MIC Spn1/1. The protocol:
(§1) The following Table contains inhibitory concentrations determined in the above test for representative members of the class of compound defined by formula I. The following microorganisms were tested: […]
Col. 1: MIC Spn1/1; μg/ml (Streptococcus pneumoniae 1/1, Trimethoprim- and Penicillin-resistant, Serotype 6; clinical isolate, stored at −80° C.)
Lit.: H. Locher et al., Can. J. Infect. Dis.6: Suppl. C, p 469C.

Data set [2] has as its system Staphylococcus aureus 101, MRSA and Trimethoprim-resistant; clinical isolate. Nature of the data set: MIC against Staphylococcus aureus 101. The class given is cell-based. The note with it: read-out: MIC Sa101. The procedure:
as §1
Col. 2: MIC Sa101; μg/ml (Staphylococcus aureus 101, MRSA^*)— and Trimethoprim-resistant; clinical isolate, stored at −80° C.)
^*) MRSA=Methicillin Resistant Staphylococcus Aureus

In data set [3] the target is purified DHFR of the strain 157/4696 (highly trimethoprim-resistant; clinical isolate) of Staphylococcus aureus (Staphylococcus aureus, UniProt P13955). Nature of the data set: biochemical.
Description: The inhibition of the enzyme was taken as a measurement for the antibacterial activity.
The target of data set [4] is T1, purified DHFR of strain Sp1/1 of Streptococcus pneumoniae (Streptococcus pneumoniae, UniProt Q54801).
T1 sequence (Q54801 1-168): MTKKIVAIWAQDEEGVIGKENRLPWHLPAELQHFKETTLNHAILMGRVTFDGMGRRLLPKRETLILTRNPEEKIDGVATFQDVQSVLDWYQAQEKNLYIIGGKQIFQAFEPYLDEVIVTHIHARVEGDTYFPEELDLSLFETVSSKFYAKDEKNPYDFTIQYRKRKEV
The note with it: read-out: DHFR Spn1/1 (IC50); purified DHFR of S. pneumoniae strain Spn1/1; IC50 determined graphically.
Description: 3: DHFR Spn1/1; μM—the IC50-values in μM against the purified DHFR of the above strain Sp1/1 of Streptococcus pneumoniae.

Each structure is given as a SMILES string. pIC50: −log10 of the molar value. Values after ≈ are worked out from the molar mass of the structure shown.

Regarding `CCOc1cc(Cc2cnc(N)nc2N)cc2c1OC(C)(C)C=C2c1ccc(F)cc1` [Example 35, 5-[8-Ethoxy-4-(4-fluoro-phenyl)-2,2-dimethyl-2H-chromen-6-ylmethyl]-pyrimidine-2,4-diamine], the melting point is 204 to 205 °C (dec.).

As for `COc1cc(Cc2cnc(N)nc2N)cc2c1OC1(C=C2Br)CCOCC1` [Example 21, 5-[(4-Bromo-2′,3′,5′,6′-tetrahydro-8-methoxyspiro[2H-1-benzopyran-2,4′-[4H]pyran]-6-yl)-methyl]-2,4-pyrimidinediamine], the MIC came to 4 µg/mL (≈ 9.23 µM) in data set [1] and 1 µg/mL (≈ 2.31 µM) in data set [2]. The pIC50 in data set [3] was 6.82; in data set [4] it was 7.28. `CCOc1cc(Cc2cnc(N)nc2N)cc2c1OC(C)(C)C=C2c1cccc(F)c1` [Example 34, 5-[8-Ethoxy-4-(3-fluoro-phenyl)-2,2-dimethyl-2H-chromen-6-ylmethyl]-pyrimidine-2,4-diamine] returned a melting point of 185 to 186 °C.

For the molecule `CCOc1cc(Cc2cnc(N)nc2N)cc2c1OC(C)(C)C=C2c1ccncc1` [Example 47, 5-(8-Ethoxy-2,2-dimethyl-4-pyridin-4-yl-2H-chromen-6-ylmethyl)-pyrimidine-2,4-diamine], the melting point was in the range of 223 to 226 °C. Same read-out and setting: to `COc1cc(Cc2cnc(N)nc2N)cc2c1OC1(C=C2)CCCCC1` [Example 31, 5-[(8-Methoxyspiro[2H-1-benzopyran-2,1′-cyclohexan]-6-yl)methyl]-2,4-pyrimidine-diamine] belongs 181 to 182 °C. The same measure, in the same setting: to `COc1cc(Cc2cnc(N)nc2N)cc2c1OC(C)(C)C=C2CO` [Example 5, [6-(2,4-Diamino-pyrimidin-5-ylmethyl)-8-methoxy-2,2-dimethyl-2H-chromen-4-yl]-methanol] belongs 239 to 240 °C.

In the case of `COc1cc(Cc2cnc(N)nc2N)cc2c1OC(C)(C)C=C2Br` [Example 2, 5-(4-Bromo-8-methoxy-2,2-dimethyl-2H-chromen-6-ylmethyl) -pyrimidine-2,4-diamine], the MIC in data set [1] came to 4 µg/mL (≈ 10.2 µM); in data set [2], 1 µg/mL (≈ 2.56 µM). Moreover, the pIC50 in data set [3] was 6.82; in data set [4], 7.28. The molecule `CCOc1cc(Cc2cnc(N)nc2N)cc2c1OC(C)(C)C=C2[Si](C)(C)C` showed a melting point of 189 to 190 °C.

Consider `COc1cc(Cc2cnc(N)nc2N)cc2c1OC(C)(C)C=C2c1cccs1` [Example 51, 5-(8-Methoxy-2,2-dimethyl-4-thiophen-2-yl-2H-chromen-6-ylmethyl)-pyrimidine-2,4-diamine], for which the melting point is more than 260 °C.

In turn, `CCOc1cc(Cc2cnc(N)nc2N)cc2c1OC(C)(C)C=C2C(C)(O)CC` (centres unmarked) [Example 44, 2-[6-(2,4-Diamino-pyrimidin-5-ylmethyl)-8-ethoxy-2,2-dimethyl-2H-chromen-4-yl]-butan-2-ol] gave a melting point of 127 to 128 °C. Same read-out and setting: to `COc1cc(Cc2cnc(N)nc2N)cc2c1OC(C)(C)C=C2c1ccccc1` [Example 42, 5-(8-Methoxy-2,2-dimethyl-4-phenyl-2H-chromen-6-ylmethyl) -pyrimidine-2,4-diamine] belongs more than 260 °C. For the molecule `COc1cc(Cc2cnc(N)nc2N)cc2c1OC(C)(C)C=C2SC` [Example 4, 5-(8-Methoxy-2,2-dimethyl-4-methylsulfanyl-2H-chromen-6-ylmethyl)-pyrimidine-2,4-diamine], the MIC in data set [1] was 4 µg/mL (≈ 11.2 µM); in data set [2], 2 µg/mL (≈ 5.58 µM). The values for the pIC50 in data set [3] and in data set [4] were 7.06 and 7.11, respectively. `CCOc1cc(Cc2cnc(N)nc2N)cc2c1OC(C)(C)C=C2c1cccnc1` [Example 50, 5-(8-Ethoxy-2,2-dimethyl-4-pyridin-3-yl-2H-chromen-6-ylmethyl) -pyrimidine-2,4-diamine]: the melting point is 145 °C (dec.). Turning to `CCOc1cc(Cc2cnc(N)nc2N)cc2c1OC(C)(C)C=C2c1ccc(OC)c(OC)c1` [Example 48, 5-[4-(3,4-Dimethoxy-phenyl)-8-ethoxy-2,2-dimethyl-2H-chromen-6-ylmethyl]-pyrimidine-2,4-diamine], the melting point lay in the range of 191 to 192 °C. For `CCOc1cc(Cc2cnc(N)nc2N)cc(OCC)c1-n1cccc1` [Epiroprim, reference compound], the MIC was determined as 4 µg/mL (≈ 11.3 µM) in data set [1] and 16 µg/mL (≈ 45.3 µM) in data set [2]. For the same molecule, the pIC50 in data set [3] was 5.70.

On to `COc1cc(Cc2cnc(N)nc2N)cc2c1OC(C)(C)C=C2c1cccc(F)c1` [Example 33, 5-[4-(3-Fluoro-phenyl)-8-methoxy-2,2-dimethyl-2H-chromen-6-ylmethyl]-pyrimidine-2,4-diamine], for which the melting point was 267 °C (dec.). `CCOc1cc(Cc2cnc(N)nc2N)cc2c1OC(C)(C)C=C2` [Example 19, 5-(8-Ethoxy-2,2-dimethyl-2H-chromen-6-ylmethyl)-pyrimidine-2,4-diamine] returned a melting point of 184 to 186 °C. The same measure, in the same setting: to `CCOc1cc(Cc2cnc(N)nc2N)cc2c1OC(C)(C)C=C2c1cccc(N)c1` [Example 56, 5-[4-(3-Amino-phenyl)-8-ethoxy-2,2-dimethyl-2H-chromen-6-ylmethyl]-pyrimidine-2,4-diamine] belongs 196 to 198 °C (dec.); to `CCOc1cc(Cc2cnc(N)nc2N)cc2c1OC(C)(C)C=C2Cl` [Example 59, 5-(4-Chloro-8-ethoxy-2,2-dimethyl-2H-chromen-6-ylmethyl)-pyrimidine-2,4-diamine], 197 to 199 °C.

The molecule `CCC1=CC(C)(C)Oc2c(OC)cc(Cc3cnc(N)nc3N)cc21` [Example 3, 5-(4-Ethyl-8-methoxy-2,2-dimethyl-2H-chromen-6-ylmethyl)-pyrimidine-2,4-diamine] yielded a melting point of 256 to 257 °C. Same read-out and setting: as for `C=C(C)C1=CC(C)(C)Oc2c(OCC)cc(Cc3cnc(N)nc3N)cc21` [Example 45, 5-(8-Ethoxy-4-isopropenyl-2,2-dimethyl-2H-chromen-6-ylmethyl)-pyrimidine-2,4-diamine], the figure is 188 to 189 °C; as for `COc1cc(Cc2cnc(N)nc2N)cc2c1OC(C)(C)C=C2c1cccc([N+](=O)[O-])c1` [Example 53, 5-[8-Methoxy-2,2-dimethyl-4-(3-nitro-phenyl)-2H-chromen-6-ylmethyl]-pyrimidine-2,4-diamine], 253 to 254 °C. On to `COc1cc(Cc2cnc(N)nc2N)cc2c1OC(C)(C)C=C2c1ccc(F)cc1` [Example 32, 5-[4-(4-Fluoro-phenyl)-8-methoxy-2,2-dimethyl-2H-chromen-6-ylmethyl]-pyrimidine-2,4-diamine], for which the MIC in data set [1] and in data set [2] was more than 8 µg/mL each time. For the same molecule, the pIC50 is 7.10 in data set [3] and 6.72 in data set [4]. Take `CCOc1cc(Cc2cnc(N)nc2N)cc2c1OC(C)(C)C=C2c1cccs1` [Example 36, 5-(8-Ethoxy-2,2-dimethyl-4-thiophen-2-yl-2H-chromen-6-ylmethyl)-pyrimidine-2,4-diamine]: the melting point was 213 to 214 °C (dec.). The same measure, in the same setting: to `CCOc1cc(Cc2cnc(N)nc2N)cc2c1OC(C)(C)C=C2c1cccc(NC(C)=O)c1` [Example 49, N-{3-[6-(2,4-Diamino-pyrimidin-5-ylmethyl)-8-ethoxy-2,2-dimethyl-2H-chromen-4-yl]-phenyl}-acetamide] belongs 145 °C (dec.); to `CCOc1ccc(C2=CC(C)(C)Oc3c(OCC)cc(Cc4cnc(N)nc4N)cc32)cc1` [Example 52, 5-[8-Ethoxy-4-(4-ethoxy-phenyl)-2,2-dimethyl-2H-chromen-6-ylmethyl]-pyrimidine-2,4-diamine], 186 to 188 °C. `COc1cc(Cc2cnc(N)nc2N)cc(OC)c1OC` [Trimethoprim, reference compound]: the MIC is more than 32 µg/mL in data set [1] and 32 µg/mL (≈ 110 µM) in data set [2]. Molecule `CCOc1cc(Cc2cnc(N)nc2N)cc2c1OC(C)(C)C=C2C#CC(C)O` (centres unmarked) [Example 15, 4-[6-(2,4-Diamino-pyrimidin-5-ylmethyl)-8-ethoxy-2,2-dimethyl-2H-chromen-4-yl]-but-3-yn-2-ol] showed a melting point of 218 to 219 °C. In turn, `COc1cc(Cc2cnc(N)nc2N)cc2c1OC(C)(C)C=C2C#CCO` [Example 46, 3-[6-(2,4-Diamino-pyrimidin-5-ylmethyl)-8-methoxy-2,2-dimethyl-2H-chromen-4-yl]-prop-2-yn-1-ol] gave a melting point of 236 to 237 °C.

`CCOc1cc(Cc2cnc(N)nc2N)cc2c1OC(C)(C)C=C2c1ccsc1` [Example 37, 5-(8-Ethoxy-2,2-dimethyl-4-thiophen-3-yl-2H-chromen-6-ylmethyl)-pyrimidine-2,4-diamine]: the melting point is 217 °C (dec.). The same measure, in the same setting: as for `CCOc1cc(Cc2cnc(N)nc2N)cc2c1OC(C)(C)C=C2CO` [Example 13, [6-(2,4-Diamino-pyrimidin-5-ylmethyl)-8-ethoxy-2,2-dimethyl-2H-chromen-4-yl]-methanol], the figure is 187 to 189 °C. Turning to `CCOc1cc(Cc2cnc(N)nc2N)cc2c1OC(C)(C)C=C2C(C)(C)O` [Example 43, 2-[6-(2,4-Diamino-pyrimidin-5-ylmethyl)-8-ethoxy-2,2-dimethyl-2H-chromen-4-yl]-propan-2-ol], the melting point lay in the range of 209 to 210 °C.

What is called melting point is the temperature, or range, at which the solid turns liquid.

For the origin of these results see patent publication US6818649B2, “Chromenylmethyl pyrimidinediamines as antibacterial agents” (Basilea Pharmaceutica AG, priority 2000, dated 2004).
